In patent publication US20240024402A1, “COMPOSITION FOR IMPROVING INSULIN SENSITIVITY, CONTAINING GENTIANA TRIFLORAL PALLAS EXTRACT” (MTHERA PHARMA CO., LTD., priority 2020, published 2024):

System: ogt mRNA
Assay: ogt mRNA expression in HepG2 cells cultured with glucose, MGO and other sugars/aldehydes
Format: cell-based
Conditions: MGO, 24 hours
Experimental: The HepG2 cells were cultured in a cell culture medium containing glucose, fructose, methylglyoxal (MGO), glyoxal (GO), glyceraldehyde 3-phosphate (G3P), glyceraldehyde, and glycolaldehyde for 24 hours, respectively, and the expression level of ogt mRNA was measured and shown in FIG. 5.

Structure (SMILES): CC(=O)C=O [MGO, methylglyoxal]
- ogt mRNA expression compared to the control group: increased nearly twice
